Experimental data published in publication PMC11530130, “Peripherally restricted PICK1 inhibitor mPD5 ameliorates pain behaviors in murine inflammatory and neuropathic pain models” (JCI Insight, 2024).
Values joined by “and” are separate entries in the source; they are usually repeats but may differ in a detail not shown here. Equal values may be shown once.

Assays:
naive mice [1] = test: Conditioned place preference (CPP); assay type: in vivo, mouse; details: for locomotion during conditioning compared with PBS / time in the drug-paired compartment during the posttest compared with PBS: naive mice
Method: compartment and that a single exposure of psychostimulants in the grey compartment sufficiently changes the preference towards that compartment (9-11). For further details of the setup, we refer to (10). Experiments lasted three days with exposure sessions on days one and two and a preference test on day three. On each day, animals were moved from the housing facility to the experimental room and allowed to acclimatize for at least 60 min before initiation of the experiment. mPD5 was paired with the grey compartment, known to be the least preferred compartment (10, 11). All mice from a cage were tested at the same time, but not all were given the same treatment. Mice were weighed and injected s.c. with PBS or 30 μmol/kg mPD5. For the sePP on CFA-injected mice, the injury was induced as described in “Induction of inflammatory pain (CFA model)”-section. sePP was run on day 3-5 after CFA-injection, and von Frey was performed on days 0, 2, and 5 as described in the “Mechanically-evoked pain (von Frey)”-section.
Conditioned place preference.
CPP was performed in Med-Associates square behavioral chambers fitted with beam-break movement detection. Chambers are split in two (27.3 x 13.5 cm each) with a red Plexiglas wall (allowing penetrance of the beams) and a predictable-preference design. Least-preferred compartment: white walls + floor and a transparent lid. Preferred compartment: horizontal grey and black stripes on the wall and lid with a light grey upside-down Lego® floor. Mice can freely move between the two compartments through a 4x4 cm opening in the separating wall during pretest and posttest but are confined to one compartment during conditionings.
Pretest (DAY 1): To test the basal preference of the mice, they were placed in the chamber to freely move between the two compartments for 30 min. Time spent in each compartment was […]
compartment was used to define three even groups.
Conditioning (DAY 2-9): Mice were injected s.c. with PBS, morphine (10 mg/kg) (RH Pharmacy, Denmark, Vnr. 475249), or 10 μmol/kg mPD5 immediately before being placed in and confined to the appropriate compartment for 40 min. Drug was paired to the least-preferred compartment, conditioning was alternated so that mice were never placed in the same compartment two days in a row, and the day on which they were exposed to drug was […]
Preference test (DAY 10): Mice were allowed to freely move between the two compartments […]
Ultrasonic vocalisation (USV) recordings.
Mice were left in Med-Associates square behavioral chambers (27 cm x 27 cm) to freely roam around for 60 min, four days in a row. The first two days were for habituation, but on the third and fourth days, USV recordings were performed using an Avisoft UltraSoundGate 416Hb recording interface (Model CM16-CMPA, Avisoft Bioacoustics, Germany) at a sampling rate of 250,000 Hz in 16-bit format kindly loaned by Morgan Thomsen and Simone Tonetto (Department of Neuroscience, University of Copenhagen, Copenhagen). On day three, both control and SNI mice were placed directly in the chambers and recorded for 60 min. On day four, control mice were injected s.c. with PBS, and SNI mice were injected with either 10 μmol/kg mPD5 or PBS immediately before being placed in the chambers and recorded for 60 min. The recordings were analyzed using the Avisoft SASLab Pro software (Version 5.02.07, Avisoft Bioacoustics) as described in (12), applying a fast fourier transformation (FFT) (1024 FTT length, 100% frame size, Blackman window, and 87.5% time window overlap).
Spectrograms were produced at a frequency resolution of 244 Hz and a time resolution of 0.512 ms. Spectrogram analysis was performed using an automatic whistle-tracking algorithm with an element separation threshold of -45 dB, 1 ms minimal duration, and a hold time of 10 ms.

naive mice [2] = test: Hot water tail immersion (tail-flick) test; assay type: in vivo, mouse; details: for tail-flick time, individual mice: water of 49°C, hr 1, male and female
Method: To compare pain-relevant vocalizations, only short and constant USVs of 37 kHz were counted […]
Tail-Flick immersion test
Naïve wildtype male and female mice (10 weeks of age) were habituated to handling and experimental set up for one week prior to data collection. On the day of data collection, a baseline measurement was performed prior to injection of compounds. One measurement consisted of immersion of 2/3rds of the tail in water (49 °C) for maximum ten seconds, three times with an interval of ten seconds between each measurement using the mean of the three measurements. After baseline, mice were injected s.c. with mPD5 10 μmol/kg mPD5, 10 mg/kg morphine (RH Pharmacy, Denmark, Vnr. 475249), or sterile PBS one hour before undergoing the tail-flick hot water immersion assay again.
Mice were pretreated with 10 μmol/kg mPD5, 10 mg/kg morphine (RH Pharmacy, Denmark, Vnr. 475249), or PBS 45 min before habituation to observation container (glass cylinder surrounded by mirrors on 2 sides) for 15 min. Mice then received an intraplantar injection of 20 µl capsaicin (1.6 ug/paw) (sigma CAS Number:404-86-4, diluted with 1:1:8 solution of tween-20, 70% ethanol, and MilliQ water) in one hind paw and were reintroduced to the observation container. Mice were recorded for three min after i.pl. injection with capsaicin and euthanized the same day. Mice were scored manually for the amount of time spent paw licking within three min after capsaicin administration.
Mice were 10 weeks old at the beginning of the experiment and acclimatized to the animal facility for two weeks after arrival. Male mice were randomized into two groups (n = 8/group) and weighed and injected s.c. once daily (between 3 pm and 4 pm) for 14 days with sterile PBS or 10 μmol/kg mPD5 (diluted in sterile PBS and pH adjusted to 7.4). After 14 days of dosing, the males were paired with female mice in fresh cages, and the number of pubs counted for 35 days (males were removed from the breeding cages after 14 days). Following the 14 days mating period, males were sacrificed by cervical dislocation caudae epidymidis were removed and weighed. Caudae epidymidis were cut into smaller pieces in 2 mL PBS (37 °C) and incubated (37 °C, 5% CO2) for 15 min. Following incubation, the mix was swirled gently, and 0.5 mL of the liquid was transferred to room tempered PBS to achieve a final volume of 1 mL.
Subsequently, sperm count was determined by transferring 50 µL of the sample to a hemocytometer, and each sample was determined in duplicate by an experimenter blinded to drug treatment. Following criteria were assessed: mobility (forward and circular), local tail mobility and total number. Females were weighed on a regular basis from removal of the males […]
Unless otherwise stated, all data were analysed using GraphPad Prism 9.4.1. and presented as mean +-SEM with the significance level set to p < 0.05. For locomotion and elevated plus maze, Ethovision XT 13 (Noldus) was used to track the distance travelled by each animal. For within group analysis (i.e., von Frey experiments), two-way ANOVA followed by Dunnett’s post hoc test was used. For between group analysis of multiple time points (i.e., locomotion experiments), two-way ANOVA was used without post hoc test due to lack of treatment significance in the ANOVA test. For the limb use experiment, data pre versus post treatment was analysed with a Kruskal Wallis test due to the non-parametric nature of the data. […]

| SMILES | Conditioned place preference, Fig 6O, individual mice (naive mice [1]; 10 mg/kg) | CPP conditioning session value, Fig 6N, individual mice (naive mice [1]; Cond1, 10 mg/kg) | CPP conditioning session value, Fig 6N, individual mice (naive mice [1]; Cond2, 10 mg/kg) | CPP conditioning session value, Fig 6N, individual mice (naive mice [1]; Cond3, 10 mg/kg) | CPP conditioning session value, Fig 6N, individual mice (naive mice [1]; Cond4, 10 mg/kg) | locomotion during conditioning compared with PBS (naive mice [1]; s.c. 10 mg/kg) | time in the drug-paired compartment during the posttest compared with PBS (naive mice [1]; s.c. 10 mg/kg) | tail-flick time, individual mice (naive mice [2]; 10 mg/kg, female mice) | tail-flick time, individual mice (naive mice [2]; 10 mg/kg, male mice) | Conditioned place preference, Fig 6O, individual mice (naive mice [1]; 10 umol/kg) | CPP conditioning session value, Fig 6N, individual mice (naive mice [1]; Cond1, 10 umol/kg) | CPP conditioning session value, Fig 6N, individual mice (naive mice [1]; Cond2, 10 umol/kg) | CPP conditioning session value, Fig 6N, individual mice (naive mice [1]; Cond3, 10 umol/kg) | CPP conditioning session value, Fig 6N, individual mice (naive mice [1]; Cond4, 10 umol/kg) | locomotion during conditioning compared with PBS (naive mice [1]; s.c. 10 μmol/kg) | time in the drug-paired compartment during the posttest compared with PBS (naive mice [1]; s.c. 10 μmol/kg) | effect on tail-flick latency compared with baseline (naive mice [2]; naive mice, both sexes, s.c. 10 μmol/kg) | tail-flick time, individual mice (naive mice [2]; 10 umol/kg, female mice) | tail-flick time, individual mice (naive mice [2]; 10 umol/kg, male mice) |
| --- | --- | --- | --- | --- | --- | --- | --- | --- | --- | --- | --- | --- | --- | --- | --- | --- | --- | --- | --- |
| CN1CC[C@]23c4c5ccc(O)c4O[C@H]2[C@@H](O)C=C[C@H]3[C@H]1C5 [morphine] | 641.2 and 758.05 and 523.1 and 617.25 and 422.75 and 543.85 and 370.9 and 516.75 | 9137.98 and 12057.9 and 7914.76 and 12165.9 and 13969.3 and 7487.52 and 2666.42 and 10528.9 | 15370.1 and 15969.7 and 11493.6 and 16698.2 and 17811.8 and 8242.22 and 9139.38 and 16599.9 | 15699.6 and 17306.6 and 14219.9 and 18863.2 and 19954.9 and 11799.1 and 7739.36 and 18695.7 | 14707.1 and 15254.9 and 15074.4 and 17950.9 and 21599.6 and 11535.1 and 8924.2 and 17697.5 | significantly increased locomotion | significantly more time in the drug-paired compartment | 10 | 10 (2×) and 6 and 7 | – | – | – | – | – | – | – | – | – | – |
| CCCCCCCCCCCCCC(=O)N(CCOCCOCCC(=O)N[C@@H](Cc1c[nH]cn1)C(=O)N[C@@H](Cc1c[nH]c2ccccc12)C(=O)N[C@@H](CC(C)C)C(=O)N[C@@H](CCCCN)C(=O)N[C@H](C(=O)O)C(C)C)CCOCCOCCC(=O)N[C@@H](Cc1c[nH]cn1)C(=O)N[C@@H](Cc1c[nH]c2ccccc12)C(=O)N[C@@H](CC(C)C)C(=O)N[C@@H](CCCCN)C(=O)N[C@H](C(=O)O)C(C)C [mPD5, myristoyl-NPEG4-(HWLKV)2] | – | – | – | – | – | – | – | – | – | 422.4 and 657.8 and 145.75 and 377.8 and 709.7 and 623.7 and 240.55 and 244.05 | 2308.61 and 1809.85 and 2224.56 and 2674.86 and 871.493 and 1226.84 and 1378.23 and 2217.21 | 1180.49 and 1059.56 and 1212.87 and 2147.54 and 783.988 and 1076.18 and 1174.28 and 2455.85 | 1906.76 and 766.515 and 1139.87 and 2374.29 and 1205.41 and 1378.46 and 1356.35 and 1697.51 | 2079.11 and 1457.65 and 2495.22 and 2149.64 and 1597.67 and 2463.25 and 958.529 and 1951.51 | did not affect locomotion | did not | no effect on tail-flick latency | 3 and 4 (2×) and 5 | 3 (2×) and 2 and 4 |
